Results: paper PMC8773338, “Discovery Potent of Thiazolidinedione Derivatives as Antioxidant, α-Amylase Inhibitor, and Antidiabetic Agent” (Biomedicines, 2021)
In brackets after ≈: the same amount, converted by molar mass.

Experiments:
[1] = target: T1, α-amylase (Homo sapiens, UniProt P04746); assay: in vitro inhibition of α-amylase assay; assay type: biochemical; conditions: six concentrations 5-40 µg/mL, non-linear regression
T1 sequence (P04746 16-511): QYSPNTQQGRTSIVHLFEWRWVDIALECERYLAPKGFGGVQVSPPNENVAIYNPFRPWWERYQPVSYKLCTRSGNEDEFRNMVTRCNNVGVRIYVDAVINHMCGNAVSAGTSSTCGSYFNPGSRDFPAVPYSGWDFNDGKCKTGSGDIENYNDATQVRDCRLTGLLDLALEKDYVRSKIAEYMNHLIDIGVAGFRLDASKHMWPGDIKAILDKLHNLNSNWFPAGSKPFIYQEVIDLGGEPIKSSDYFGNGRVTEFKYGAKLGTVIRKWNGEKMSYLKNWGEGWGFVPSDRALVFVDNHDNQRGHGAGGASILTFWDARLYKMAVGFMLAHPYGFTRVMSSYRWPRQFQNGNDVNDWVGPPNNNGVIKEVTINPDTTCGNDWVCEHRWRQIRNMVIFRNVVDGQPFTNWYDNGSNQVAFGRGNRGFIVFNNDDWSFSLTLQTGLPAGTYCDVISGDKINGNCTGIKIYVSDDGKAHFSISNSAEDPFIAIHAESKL
Source text: The α-amylase activity of the probe compounds determined using a method.
This study examined the inhibitory potential for the (3–6, 9, and 11) compounds against α-amylase enzyme. We applied six different concentrations (5,10,15,20,30, and 40) µg/mL for this test. These concentrations were plotted via the inhibition percentage to determine the IC50 (the concentration required to inhibit 50% of the enzyme) using the non-linear regression method.
- inhibition in-vitro of α-Amylase assay:
The α-amylase activity of the compounds were determined using a method in which 250 μL of each compound, or Metformin .HCl, dissolved in ethanol to obtain different concentrations (5, 10, 15, 20,30 and 40 μg/mL ), was mixed with 500 μL of α-amylase (2 U/mL ) in phosphate buffer (100 mM, pH 6.8) and incubated at 37 °C for 10 min. Thereafter, 50 μL of 1% starch, dissolved in the same buffer, was added to the mixture and the samples were incubated again at 37 °C. After 30 min, dinitrosalicylic acid (DNS) colour reagent (1 mL) was added. The (DNS) was prepared by adding 437mg of 3,5- dinitro salicylic acid in 20 mL distilled water to12 g of sodium potassium tartrate in 8 mL of 2 M NaOH, then added distilled water until the solution reach to 40 mL ). the samples were boiled for 10 min in water bath. For non-enzymatic reactions, the assays were performed with a blank containing all of the components except the enzyme. Each concentration was analyzed in three independent experiments run in triplicate.
The percent of inhibition Absorbance was then measured at 540 nm. The percent of inhibition of α-amylase was calculated as following by the formula below:
%inhibition= ((absorbance of blank_absorbance of compound)/absorbance of blank) *100. […]

[2] = system: alloxan-induced diabetic rat model; conditions: Wistar (albino), in vivo, 30 days
Source text: This study used an alloxan-induced diabetic rat model to test the anti-hyperglycemic action of substances (3–6, 9, 11). […] The BGL was monitored for each tested compound at three different doses (50, 100, and 250 μ/Kg) and for five experimental period durations (0, 2, 4, 15, 30 days).
At 50 μ/Kg, we observed no mortality during any of the experiment periods for all tested compounds.
Data analyzed by one way ANOVA followed by LSD test and expressed as mean ± SEM from five observations. TEXT PRINTED IN THE PICTURE: 3: Mortilaty: 20% (250 (m/Kg)); Mortilaty: 10% (100 (m/Kg)); Mortilaty: 0% (50 (m/Kg)) | 4: Mortilaty: 20% (250 (m/Kg)); Mortilaty: 10% (100 (m/Kg)); Mortilaty: 0% (50 (m/Kg)) | 5: Mortilaty: 30% (250 (m/Kg)); Mortilaty: 20% (100 (m/Kg)); Mortilaty: 0% (50 (m/Kg)) | 6: Mortilaty: 20% (250 (m/Kg)); Mortilaty: 10% (100 (m/Kg)); Mortilaty: 0% (50 (m/Kg)) | 9: Mortilaty: 20% (250 (m/Kg)); Mortilaty: 10% (100 (m/Kg)); Mortilaty: 0% (50 (m/Kg)) | 11: Mortilaty: 20% (250 (m/Kg)); Mortilaty: 10% (100 (m/Kg)); Mortilaty: 0% (50 (m/Kg)) DOUBTS OF THE COPYIST ABOUT THIS PICTURE: The control groups NO. (labels 0%, 0%, 0%, overlapping) and DC (labels 50%, 50% and a third that reads 50% or 60%, partly hidden) are not compounds and were left out. / 3, 4, 5, 6, 9, 11, Mortilaty at 50 (m/Kg): the 0% labels are partly overlapped by neighbouring bars and labels; 0% is the best reading. / Which label belongs to which dose series was judged from its position over the bars; several labels overlap.

[3] = system: alloxan-induced diabetic rat model; assay: serum lipid profile in alloxan-induced diabetic rats; assay type: in vivo; conditions: for LDL value: versus normal value; for CH level: versus normal animals; for serum CH level decrease: compared to the diabetic control group
Experimental: The blood samples (0.5 mL) were withdrawn from the retro-orbital plexus of each rat and the other steps adapted for measuring the biochemical analysis are shown in (Supplementary Materials).
A serious side effect related to diabetes is Hyperlipidemia. Insulin deficiency promotes the adipocytes to generate a fatty acid, hepatic phospholipids and cholesterol. Thus, we measured the levels of (cholesterol “CH”, triglyceride “TG”, high, low and very-low- and high/low and very low density lipoproteins “HDL, LDL and VLDL”) in serum for alloxan-loaded diabetes. […] The serum CH. Level decreased by 40%, 32%, 40%, 48%, 52%, and 43% for 3–6, 9, and 11, respectively, compared to the diabetic control group (Figure 7).
Figure 7 The level of Ch (cholesterol), TG (triglyceride), HDL (high density lipoprotein), LDL (low density lipoprotein) and VLDL (very low density lipoprotein) in serum of hyperglycemic loaded rats. […] Data analyzed by one way ANOVA followed by LSD test and expressed as mean ± SEM from five observations.
2007) dissolved in normal saline (Bodade et al., 2013). The animals were allowed to drink 5% glucose solution overnight to overcome the drug induced hypoglycemia (Gandhi and Sasikumar, 2012; Pareek etal., 2009). Blood samples were taken 48 h after injection of alloxan to ensure that diabetes has been induced (Vijayan et al., 2013), and fasting plasma glucose level of rats was determined using glucose strips. Rats with plasma glucose concentration N 300 mg/dl (Gadadare et al., 2015) were considered diabetic and included in […]
The blood samples (0.5 ml) were withdrawn from the retro-orbital plexus of each rat under mild anesthesia using a glass capillary tube after fasting for 6 h. Blood samples were centrifuged at 3000 rpm for 15 min. The serum was kept at −80 °C until analyzed. Speciﬁc reagent kits were used to determine levels of serum triglyceride (TG), serum cholesterol (CH), serum low density lipoproteins (LDL), serum high density lipoproteins (HDL) for assessing the lipid proﬁle.
(§1) Data are expressed as mean ± S.E. Data analysis was done using one way analysis of variance (ANOVA) followed by least significant difference (LSD) test for multiple comparisons. Difference was considered significant when p is less than 0.05. SPSS (version 11) program was used to carry out these statistical tests.

[4] = system: alloxan-induced diabetic rat model; assay: blood glucose level in alloxan-induced diabetic rat model; assay type: in vivo; conditions: for reduction percentage of blood glucose level: 30-day treatment protocol, compared with the normal control
Experimental: Healthy male albino Wistar rats (150 ± 20 g) have been obtained as mentioned in Supplementary Materials.
The animals were kept fasting overnight (12 h) before induction of diabetes, which was induced in rats as reported and mentioned in Supplementary Materials.
We obtained the blood samples from the tail vein of all rats, the blood-glucose-level “BGLs” were measured and monitored in all treatment groups at days 0 (basal), 2th, 4th, 15th, and 30th as reported.
This study used an alloxan-induced diabetic rat model to test the anti-hyperglycemic action of substances (3–6, 9, 11). […] The BGL was monitored for each tested compound at three different doses (50, 100, and 250 μ/Kg) and for five experimental period durations (0, 2, 4, 15, 30 days). […]
The animals were kept fasting overnight (12 h) before induction of diabetes. […]
as §1

[5] = DPPH radical scavenging activity; conditions: concentrations 0.16-1000 µg/mL
Experimental: The assay of 2,2-Diphenyl-1-picrylhydrazyl radical (DPPH) was performed according to the method at.
We examined the antioxidant activity of the (3–6, 9, and 11) hybrids using the stable DPPH assay. The antioxidant result was represented as IC50 (the concentration is essential for 50% reduction in the power of H-donation or radical scavenging). […] The increasing scavenging activity may be due to the stabilization of the lone pair in the conjugated system through the presence of the terminal carbonyl and thiazolidinone groups.

[6] = 100 μ/Kg, in comparison with DC, 4th and 15th time durations
[7] = 250 μ/Kg, 15th and 30th treatments
[8] = 250 μ/Kg, 30th time duration of treatment

Structure (SMILES)	IC50 [1] [µM]	Mortilaty [2] [%]	LDL value ([3]; 2nd and 15th days)	VLDL ([3]; 2nd to 15th days)	VLDL level ([3]; 30th day)	CH level ([3]; 30th day, 50 μ/Kg)	LDL value ([3]; 30th day)	serum CH level decrease ([3]; 50 μ/Kg) [%]	BGL ([4]; 50 μ/Kg, 4th, 15th and 30th)	BGL [4, 6]	VLDL level of serum ([3]; all experimental periods, compared to the normal rats)	BGL [4, 7]	VLDL level ([3]; 4th, 15th and 30th days)	IC50 DPPH radical scavenging [5] [µg/mL]	reduction percentage of blood glucose level [4] [%]	glucose level [4, 8]	TG level ([3]; 30th day, versus normal level, 50 μ/Kg)	BGL ([4]; 50 μ/Kg, p < 0.05, all experiment periods compared to DC group)	glucose level ([4]; 100 μ/Kg, in comparison with DC, 4th, 15th and 30th time durations)	VLDL ([3]; 4th and 30th day)
O=C1NC(=O)/C(=C\c2ccc3c(c2)OCO3)S1 [Compound 3]	173	0	can regulate the LDL value to the normal value	failed to reach to control value for VLDL	almost reached to the normal VLDL level	lower CH level than the normal animals	failed to do so	40												
O=C(CCl)N1C(=O)S/C(=C/c2ccc3c(c2)OCO3)C1=O [Compound 4]	163	0						32	moderate reduction in BGL	moderate decreases in BGL	below the normal value									
CC(=O)CN1C(=O)SC(=Cc2ccc3c(c2)OCO3)C1=O [Compound 5, 5-(benzo[d][1,3]dioxol-5-ylmethylene)-3-(2-oxopropyl) thiazolidine-2,4-dione]	59	0				lower CH level than the normal animals		40				promising decreases in BGL	regulated the VLDL level to the normal level							
O=C(O)CN1C(=O)SC(=Cc2ccc3c(c2)OCO3)C1=O [Compound 6, 2-(5-(benzo[d][1,3]dioxol-5-ylmethylene)-2,4-dioxothiazolidin-3-yl)acetic acid]	33.4	0				lower CH level than the normal animals		48	moderate reduction in BGL	moderate decreases in BGL			regulated the VLDL level to the normal level	10.78 (≈ 35.1 µM)	69.55	significant reduction in glucose level	decreased to the normal level			
Cc1nnc(NC(=S)SCC(=O)N2C(=O)S/C(=C/c3ccc4c(c3)OCO4)C2=O)s1 [Compound 9, 2-(5-(Benzo[d][1,3]dioxol-5-ylmethylene)-2,4-dioxothiazolidin-3-yl)-2-oxoethyl (5-Methyl-1,3,4-thiadiazol-2-yl) Carbamodithioate]						lower CH level than the normal animals		52	moderate reduction in BGL	moderate decreases in BGL			regulated the VLDL level to the normal level							
O=C1CSC(=O)N1CC(=O)N1C(=O)SC(=Cc2ccc3c(c2)OCO3)C1=O [Compound 11, 5-(Benzo[d][1,3]dioxol-5-ylmethylene)-3-(2-(2,4-dioxothiazolidin-3-yl)acetyl) Thiazolidine-2,4-dione]	49.2					lower CH level than the normal animals		43				promising decreases in BGL		11.16 (≈ 27.5 µM)	66.95	significant reduction in glucose level		promising reduction in BGL	significant reduction in glucose level	regulated only the VLDL of infected rats to normal values
